Reference: patent US11142524B2, “Substituted-3H-imidazo[4,5-c]pyridine and 1H-pyrrolo[2,3-c]pyridine series of novel Ectonucleotide Pyrophosphatase/Phosphodiesterase-1 (ENPP1) and stimulator for interferon genes (STING) modulators as cancer immunotherapeutics” (Stingray Therapeutics, Inc., priority 2018, dated 2021)
Values belong to the molecule of their own block, whether it stands above or below them.

Assays:
Saos-2 Cells = experiment: ENPP1 Mineralization Assay; type: cell-based; details: FIG. 4, normalized against DMSO control
Method: Saos-2 Cells (ATCC CAT #HTB-85). Culture Medium. 24-well Tissue Culture Plate. Ascorbic Acid, 5 mg/mL (100×). β-Glycerophosphate, 1M (100×). Phosphate Buffered Saline. Alizarin Red, 40 mM pH 4.2. 70% Ethanol. Dye Extraction Reagent, 10% Methanol+10% Acetic Acid
Saos-2 cells were plated at a density of 1.5×10^6 cells/well and allowed to grow to 100% confluency over the following 1-2 days. Once completely confluent, the media was replaced with fresh media supplemented with 1× ascorbic acid, 1× β-glycerophosphate, and varying concentrations of ENPP1 inhibitor (if applicable). The addition of the mineralization components was considered Day 1. On Day 3, the media was gently aspirated with no wash followed by the addition of fresh media, mineralization components, and ENPP1 inhibitor (if applicable). On day 5, the media was gently aspirated and the cells were washed twice with PBS. The cells were then fixed with ice cold 70% ethanol for 1 hour at 4° C. Cells were washed once with PBS and stained with Alizarin Red for 30 minutes at room temperature with gentle rotation. Stained cells were washed three times with water for 10 minutes at room temperature with gentle rotation. After imaging cells, dye extraction reagent was added to each well and incubated for 30 minutes at room temperature. Alizarin red was quantified by measuring absorbance at a wavelength of 405 nm using the Envision.
FIG. 9 depicts a picture of results of a similar SAOS-2 mineralization assay. SAOS-2 cell were cultured in the presence and absence of ENPP1 inhibitor (compound 78, 107-02 or 108) and exposed to mineralization components for 3 days.

[1] = biological target: Recombinant Human ENPP-2/Autotaxin Protein (Homo sapiens (Human), UniProt Q13822); experiment: ENPP2 Inhibition Assay; type: biochemical
Method: Assay Buffer: 10 mM CaCl2, 5 mM MgCl2, 50 mM Tris, 0.02% Brij-35, pH 8.5. Substrate: 2 mM Bis(p-Nitrophenyl) Phosphate Sodium Salt (Sigma Cat # N3002). Enzyme: 0.2 ng/μL Recombinant Human ENPP-2/Autotaxin Protein (R&D Cat #5255-EN), PF-3080 in DMSO in 96-well clear assay plates
(§1) An eight point serial dilution of drugs was prepared in 10× in assay buffer with the final assay concentrations starting at 10 μM, 3 μM, 1 μM, 0.3 μM . . . 0 μM. A dilution of DMSO was included as a control. The assay plate was set up as follows with each well in duplicate: 15 μL assay buffer+10 μL ENPP1 inhibitor or DMSO+50 μL Substrate+25 μL Enzyme. Both the enzyme and substrate were added to opposite sides of the well to ensure that there was no interaction until all wells had both components. The plate was then centrifuged gently for 10 seconds, followed by an incubation at 37° C. for 45 minutes. The reaction was quantified by measuring absorbance at 405 nm using the Envision.
(§2) IC50 values are determined using GraphPad Prism 5 software. The data were entered as an X-Y plot into the software as percent inhibition for each concentration of the drug. The concentration values of the drug were log transformed and the nonlinear regression was carried out using the “sigmoidal dose-response (variable slope)” option within the GraphPad software to model the data and calculate IC50 values. The IC50 values reported are the concentration of drug at which 50% inhibition was reached.

ENPP1 protein [2] = biological target: T1, ENPP1 protein (Homo sapiens (Human), UniProt P22413); experiment: ENPP1 Thermal Shift Assay (Example 1); type: binding
Method: Assay Buffer (1 mM CaCl2, 0.2 mM ZnCl2, 50 mM Tris, pH 9.0) 5000×SYPRO Orange (ThermoFisher cat #S6651) 384-well PCR Plates
Each drug was prepared as a 10× solution in the assay buffer and SYPRO Orange was diluted to 10× concentration in water. Wells were set up in duplicate in a 384-well PCR plate as follows: 14 μL assay buffer, 2 μL ENPP1 Inhibitor or DMSO, 2 μL (0.5 μg) ENPP1 protein. Each well was mixed and incubated on ice for 5 minutes. Post incubation, 2 μL of SYPRO Orange was mixed into each well and followed by a gentle centrifugation. The protein melt reaction was run using ViiA7 software with temperatures beginning at 25° C. and increasing by 0.05° C./s to the maximum temperature of 99° C.
In a 384-well plate, 1.0 μg of ENPP1 protein incubated with 100 μM of the corresponding drug for 5 minutes. Each well exposed to increasing temperatures to determine an unfolding temperature of the protein.

ENPP1 protein [3] = biological target: T1, ENPP1 protein; experiment: ENPP1 Inhibition Assay (thymidine 5′-monophosphate p-nitrophenol ester substrate); type: biochemical
Method: Assay Buffer: 1 mM CaCl2, 0.2 mM ZnCl2, 50 mM Tris, pH 9.0. Substrate: 8 mM Thymidine 5′-monophosphate p-nitrophenol ester sodium salt (Sigma Cat #T4510). Enzyme: 5 ng/L Recombinant Human ENPP-1 Protein (R&D Cat #6136-EN-010) in DMSO in 96-well clear assay plates
as §1, with “81” for “15”, “DMSO+5” for “DMSO+50”, “Substrate+4” for “Substrate+25”
as §2

MDA-MB-468 = experiment: Chou-Talalay Synergy Study with Olaparib, MDA-MB-468; type: cell-based; details: MDA-MB-468, 72 hours
Method: Cell Lines: MDA-MB-468 and UWB289.1 (ATCC). Cell Titer Glo (Promega cat #: G7572). 96-well TC treated, white assay plates
Cells were cultured according to ATCC tissue culture recommendations. Cells were plated in a 96-well tissue culture plate at a density of 1500 cells/well and allowed to settle overnight. The following day, both drugs were prepared at 10× concentration in the following ratios (Compound 22:Olaparib): 1:1, 10:1, and 1:10. The drugs were serially diluted to create an 8-point dose curve and 10 μL of each drug was added to the cells for a total volume of 100 μL/well. Plates were placed in a tissue culture incubator for 72 hours. Following incubation, each plate was treated with Cell Titer Glo according to vendor recommendation and luminescence was measured with the Envision Plate Reader. Data was analyzed using CalcuSyn software according to the methods described in Chou, Drug combination studies and their synergy quantification using the Chou-Talalay method, Cancer Res. 2010 Jan. 15; 70(2):440-6.
A Combination index (CI) value greater than 1 indicates […], equal to 1 indicates additive and less than 1 indicates synergy.

CT26 tumor = CT26 tumor growth inhibition study; type: in vivo; details: 30 mg P.O. QD, FIG. 14
B16F10 tumor = experiment: Anti-tumor efficacy in B16F10 (melanoma) syngeneic model; type: in vivo, C57BL/6 mice
Text: Animals: Female C57BL/6 (4-6 week's age from Taconic).
The B16F10 cells were propagated in DMEM cell culture medium containing 10% Fetal Bovine Serum. Cells were harvested in logarithmic growth phase and implanted subcutaneously ([…]) in the lower abdomen of mice. Tumor growth was monitored daily and after the tumors had reached 80 to 100 mm3, mice were randomized into groups consisting of 8 animals per group. Animals were euthanized when tumors reached around 2000 mm^3 or treatment regime completed or 20% of body weight loss, or developed ulceration and necrosis. Upon termination, tumor samples and blood were collected and analyzed for biomarkers.

T1 sequence (P22413 whole entry, looked up, change not shown): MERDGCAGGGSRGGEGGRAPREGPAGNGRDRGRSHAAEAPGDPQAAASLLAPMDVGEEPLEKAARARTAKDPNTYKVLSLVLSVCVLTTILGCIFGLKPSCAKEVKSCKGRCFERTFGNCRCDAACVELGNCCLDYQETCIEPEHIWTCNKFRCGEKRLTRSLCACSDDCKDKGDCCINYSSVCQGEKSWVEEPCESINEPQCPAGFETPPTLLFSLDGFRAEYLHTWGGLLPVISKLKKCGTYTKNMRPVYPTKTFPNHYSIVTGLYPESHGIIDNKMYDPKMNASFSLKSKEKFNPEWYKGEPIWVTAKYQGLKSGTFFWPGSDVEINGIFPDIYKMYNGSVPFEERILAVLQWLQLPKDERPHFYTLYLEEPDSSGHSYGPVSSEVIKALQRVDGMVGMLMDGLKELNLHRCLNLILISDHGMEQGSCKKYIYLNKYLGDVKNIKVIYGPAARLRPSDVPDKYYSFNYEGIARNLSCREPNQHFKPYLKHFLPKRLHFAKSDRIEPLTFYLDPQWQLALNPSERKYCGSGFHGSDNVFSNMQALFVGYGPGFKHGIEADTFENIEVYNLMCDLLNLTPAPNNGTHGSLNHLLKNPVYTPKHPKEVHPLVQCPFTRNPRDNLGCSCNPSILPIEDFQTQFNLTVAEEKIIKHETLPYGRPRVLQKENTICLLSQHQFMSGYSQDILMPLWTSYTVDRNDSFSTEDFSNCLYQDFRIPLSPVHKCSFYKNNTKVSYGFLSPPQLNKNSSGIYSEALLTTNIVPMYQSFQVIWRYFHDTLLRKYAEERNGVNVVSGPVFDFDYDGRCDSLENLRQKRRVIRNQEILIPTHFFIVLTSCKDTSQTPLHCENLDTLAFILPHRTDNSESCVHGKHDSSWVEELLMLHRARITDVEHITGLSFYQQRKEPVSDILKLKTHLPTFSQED

- selective at inhibiting ENPP1 but not ENPP2 [1]: selective
- inhibiting the activity of ENPP2 ([1]; FIGS. 2A and 2B): ineffective
- increasing the stability of recombinant ENPP1 protein (ENPP1 protein [2]; FIG. 3): effective
- Tm (midpoint of the protein unfolding transition) of ENPP1 (ENPP1 protein [2]; FIG. 3, ENPP1 alone 64.2° C.): 67.84 °C
- inhibiting the activity of ENPP1 (ENPP1 protein [3]; FIG. 1): effective
- IC50 (ENPP1 protein [3]; Table 1, FIG. 1, read-out: IC50): 86.8 nM
Compound: COc1ccc(NC(=O)CSc2nc3cc(Cl)ncc3[nH]2)cc1O [Compound 21, 2-((6-chloro-3H-imidazo[4,5-c]pyridin-2-yl)thio)-N-(3-hydroxy-4-methoxyphenyl) acetamide]
- inhibiting ENPP1 ability to produce mineralized nodules (Saos-2 Cells): effective

Compound: O=C(c1cc(Cc2n[nH]c(=O)c3ccccc23)ccc1F)N1CCN(C(=O)C2CC2)CC1 [Olaparib]
- ED50 Drug Concentration Olaparib (MDA-MB-468): 185065 nM

- Tm (° C.) (ENPP1 protein [2]; Table 2, FIG. 7, 100 μM drug, 1.0 μg ENPP1, NT 60.05): 61.37 °C
- ΔTm at 100 µM (ENPP1 protein [2]; Table 2, FIG. 7, 100 μM drug, 1.0 μg ENPP1, read-out: ΔTm (° C.)): 1.32 °C
Compound: COc1cc(NC(=O)CSc2nc3cc(Cl)ncc3[nH]2)ccc1O [Compound 22, 2-((6-chloro-3H-imidazo[4,5-c]pyridin-2-yl)thio)-N-(4-hydroxy-3-methoxyphenyl) acetamide]
- CT26 tumor growth inhibition (CT26 tumor): 39%
- B16F10 tumor growth inhibition (B16F10 tumor; 30 mg/kg dose (FIG. 6A / FIG. 13A)): 28%
- B16F10 tumor growth inhibition (B16F10 tumor; FIG. 6B / FIG. 13B, dose and route not stated): 27%
